Data published in patent US20210386826A1, “Combination for Treating Cancer” (Pfizer Inc., priority 2018, published 2021).

Molecular target: IL-2Rαβ (Homo sapiens, UniProt P01589+P14784)
Description: The term “CD-122-biased cytokine agonist” (also referred to as an interleukin-2 receptor beta (ILRβ), selective agonist) as used herein, refers to an agonist that has a greater affinity for binding to IL-2Rβ than to IL-2Rαβ.

Sequence of IL-2Rαβ (P01589 22-240 limits assumed): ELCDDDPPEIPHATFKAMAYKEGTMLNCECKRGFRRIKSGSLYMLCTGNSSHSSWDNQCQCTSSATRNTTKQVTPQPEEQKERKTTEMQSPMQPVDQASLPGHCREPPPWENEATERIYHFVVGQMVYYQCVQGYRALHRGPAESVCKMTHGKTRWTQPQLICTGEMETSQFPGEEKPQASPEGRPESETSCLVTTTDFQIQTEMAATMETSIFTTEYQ
Sequence of IL-2Rαβ (P14784 27-240 limits assumed): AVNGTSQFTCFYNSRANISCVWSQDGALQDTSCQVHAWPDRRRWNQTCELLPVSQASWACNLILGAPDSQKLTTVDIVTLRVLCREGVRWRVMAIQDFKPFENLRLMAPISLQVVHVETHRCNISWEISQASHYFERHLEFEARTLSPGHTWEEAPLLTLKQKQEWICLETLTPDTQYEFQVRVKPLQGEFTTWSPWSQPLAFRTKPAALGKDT

## (2,7-(bis-methoxyPEG10kD-carboxyamide)(9H-fluorene-9-yl)methyl N-carbamate)6avg interleukin-2 [bempegaldesleukin]
  decrease in affinity to IL-2Rαβ relative to IL-2: ~60 fold
